Assay results from PubChem BioAssay (NCI).
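In this assay, cells in 96-well plates receive the compound at five concentrations for 48 hours. Endpoints are linearly interpolated between the surrounding concentrations. TGI denotes the concentration required for complete inhibition of growth.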

Legend:
Test in all cases: NCI anticancer screen, dose series, 48 h
RXF 393 renal = test system: RXF 393 renal
OVCAR-8 ovarian = test system: OVCAR-8 ovarian
SK-MEL-5 melanoma = test system: SK-MEL-5 melanoma
MDA-N = test system: MDA-N
HCT-15 colon = test system: HCT-15 colon
NCI-H226 lung = test system: NCI-H226 lung
M14 melanoma = test system: M14 melanoma
HL-60(TB) leukemia = test system: HL-60(TB) leukemia
HT29 colon = test system: HT29 colon
K-562 leukemia = test system: K-562 leukemia
MOLT-4 leukemia = test system: MOLT-4 leukemia
HS 578T breast = test system: HS 578T breast
SNB-19 CNS = test system: SNB-19 CNS
SK-MEL-2 melanoma = test system: SK-MEL-2 melanoma
SK-OV-3 ovarian = test system: SK-OV-3 ovarian
MCF7 breast = test system: MCF7 breast
SR leukemia = test system: SR leukemia
NCI-H23 lung = test system: NCI-H23 lung
SF-268 CNS = test system: SF-268 CNS
SW-620 colon = test system: SW-620 colon
KM12 colon = test system: KM12 colon
CCRF-CEM leukemia = test system: CCRF-CEM leukemia
TK-10 renal = test system: TK-10 renal
OVCAR-4 ovarian = test system: OVCAR-4 ovarian
MALME-3M melanoma = test system: MALME-3M melanoma
CAKI-1 renal = test system: CAKI-1 renal
ACHN renal = test system: ACHN renal
RPMI-8226 leukemia = test system: RPMI-8226 leukemia
HCC-2998 colon = test system: HCC-2998 colon
UACC-62 melanoma = test system: UACC-62 melanoma
OVCAR-5 ovarian = test system: OVCAR-5 ovarian
DU-145 prostate = test system: DU-145 prostate
SN12C renal = test system: SN12C renal
MDA-MB-435 = test system: MDA-MB-435
IGROV1 ovarian = test system: IGROV1 ovarian
OVCAR-3 ovarian = test system: OVCAR-3 ovarian
EKVX NSCLC = test system: EKVX NSCLC
SK-MEL-28 melanoma = test system: SK-MEL-28 melanoma
NCI-H522 lung = test system: NCI-H522 lung
HCT-116 colon = test system: HCT-116 colon
MDA-MB-231 breast = test system: MDA-MB-231 breast
T-47D breast = test system: T-47D breast
HOP-62 NSCLC = test system: HOP-62 NSCLC
PC-3 prostate = test system: PC-3 prostate
U251 CNS = test system: U251 CNS
COLO 205 colon = test system: COLO 205 colon
UACC-257 melanoma = test system: UACC-257 melanoma
BT-549 breast = test system: BT-549 breast
786-0 renal = test system: 786-0 renal
A549 NSCLC = test system: A549 NSCLC
LOX IMVI melanoma = test system: LOX IMVI melanoma
UO-31 renal = test system: UO-31 renal
SF-295 CNS = test system: SF-295 CNS
SNB-75 CNS = test system: SNB-75 CNS
NCI/ADR-RES ovarian = test system: NCI/ADR-RES ovarian
NCI-H460 lung = test system: NCI-H460 lung
A498 renal = test system: A498 renal
HOP-92 NSCLC = test system: HOP-92 NSCLC
SF-539 CNS = test system: SF-539 CNS

## c1ccc(-c2cc(-c3ccncc3)cc(-c3ccncc3)n2)cc1
RXF 393 renal
  TGI: > 100 µM
OVCAR-8 ovarian
  TGI: > 100 µM
SK-MEL-5 melanoma
  TGI: > 100 µM
MDA-N
  TGI: > 100 µM
HCT-15 colon
  TGI: > 100 µM
NCI-H226 lung
  TGI: > 100 µM
M14 melanoma
  TGI: > 100 µM
HL-60(TB) leukemia
  TGI: > 100 µM
HT29 colon
  TGI: > 100 µM
K-562 leukemia
  TGI: > 100 µM
MOLT-4 leukemia
  TGI: > 100 µM
HS 578T breast
  TGI: > 100 µM
SNB-19 CNS
  TGI: > 100 µM
SK-MEL-2 melanoma
  TGI: > 100 µM
SK-OV-3 ovarian
  TGI: > 100 µM
MCF7 breast
  TGI: > 100 µM
SR leukemia
  TGI: > 100 µM
NCI-H23 lung
  TGI: > 100 µM
SF-268 CNS
  TGI: > 100 µM
SW-620 colon
  TGI: > 100 µM
KM12 colon
  TGI: > 100 µM
CCRF-CEM leukemia
  TGI: > 100 µM
TK-10 renal
  TGI: > 100 µM
OVCAR-4 ovarian
  TGI: > 100 µM
MALME-3M melanoma
  TGI: > 100 µM
CAKI-1 renal
  TGI: > 100 µM
ACHN renal
  TGI: > 100 µM
RPMI-8226 leukemia
  TGI: > 100 µM
HCC-2998 colon
  TGI: > 100 µM
UACC-62 melanoma
  TGI: > 100 µM
OVCAR-5 ovarian
  TGI: > 100 µM
DU-145 prostate
  TGI: > 100 µM
SN12C renal
  TGI: > 100 µM
MDA-MB-435
  TGI: > 100 µM
IGROV1 ovarian
  TGI: > 100 µM
OVCAR-3 ovarian
  TGI: > 100 µM
EKVX NSCLC
  TGI: > 100 µM
SK-MEL-28 melanoma
  TGI: > 100 µM
NCI-H522 lung
  TGI: > 100 µM
HCT-116 colon
  TGI: > 100 µM
MDA-MB-231 breast
  TGI: > 100 µM
T-47D breast
  TGI: > 100 µM
HOP-62 NSCLC
  TGI: > 100 µM
PC-3 prostate
  TGI: > 100 µM
U251 CNS
  TGI: > 100 µM
COLO 205 colon
  TGI: > 100 µM
UACC-257 melanoma
  TGI: > 100 µM
BT-549 breast
  TGI: > 100 µM
786-0 renal
  TGI: > 100 µM
A549 NSCLC
  TGI: > 100 µM
LOX IMVI melanoma
  TGI: > 100 µM
UO-31 renal
  TGI: > 100 µM
SF-295 CNS
  TGI: > 100 µM
SNB-75 CNS
  TGI: 99.1 µM
NCI/ADR-RES ovarian
  TGI: > 100 µM

## O=[N+]([O-])/C=C/c1cc2ccc3ccccc3c2[nH]1
RXF 393 renal
  TGI: 2.96 µM
OVCAR-8 ovarian
  TGI: > 21 µM
SK-MEL-5 melanoma
  TGI: 3.26 µM
MDA-N
  TGI: 4.79 µM
HCT-15 colon
  TGI: > 23.7 µM
NCI-H226 lung
  TGI: 2.78 µM
M14 melanoma
  TGI: 3.33 µM
HL-60(TB) leukemia
  TGI: 5.29 µM
HT29 colon
  TGI: 5.86 µM
K-562 leukemia
  TGI: 18.2 µM
MOLT-4 leukemia
  TGI: > 100 µM
HS 578T breast
  TGI: 22.2 µM
SNB-19 CNS
  TGI: 7.79 µM
SK-MEL-2 melanoma
  TGI: 2.39 µM
NCI-H460 lung
  TGI: 5.61 µM
SK-OV-3 ovarian
  TGI: 17.2 µM
MCF7 breast
  TGI: 4.29 µM
NCI-H23 lung
  TGI: 5.07 µM
A498 renal
  TGI: 3.16 µM
SF-268 CNS
  TGI: 4.02 µM
SW-620 colon
  TGI: 4.87 µM
KM12 colon
  TGI: 3.99 µM
CCRF-CEM leukemia
  TGI: 2.8 µM
TK-10 renal
  TGI: 3.08 µM
OVCAR-4 ovarian
  TGI: 4.95 µM
MALME-3M melanoma
  TGI: 3.31 µM
CAKI-1 renal
  TGI: 6.15 µM
ACHN renal
  TGI: 2.68 µM
RPMI-8226 leukemia
  TGI: 0.708 µM
HCC-2998 colon
  TGI: 3.5 µM
UACC-62 melanoma
  TGI: 3.51 µM
OVCAR-5 ovarian
  TGI: 4.55 µM
DU-145 prostate
  TGI: 3.9 µM
SN12C renal
  TGI: 3.81 µM
MDA-MB-435
  TGI: 3.73 µM
IGROV1 ovarian
  TGI: 1.89 µM
OVCAR-3 ovarian
  TGI: 3.11 µM
EKVX NSCLC
  TGI: 5.33 µM
SK-MEL-28 melanoma
  TGI: 4.79 µM
NCI-H522 lung
  TGI: 2.4 µM
HCT-116 colon
  TGI: 3.43 µM
MDA-MB-231 breast
  TGI: 3.2 µM
HOP-92 NSCLC
  TGI: 3.64 µM
T-47D breast
  TGI: 3.89 µM
HOP-62 NSCLC
  TGI: 4.39 µM
PC-3 prostate
  TGI: 3 µM
U251 CNS
  TGI: 2.95 µM
SF-539 CNS
  TGI: 4.99 µM
COLO 205 colon
  TGI: 4.29 µM
UACC-257 melanoma
  TGI: 6.45 µM
BT-549 breast
  TGI: 4.44 µM
786-0 renal
  TGI: 3.07 µM
A549 NSCLC
  TGI: 4.88 µM
LOX IMVI melanoma
  TGI: 2.42 µM
UO-31 renal
  TGI: 3.05 µM
SF-295 CNS
  TGI: 5.86 µM
SNB-75 CNS
  TGI: 3.87 µM
NCI/ADR-RES ovarian
  TGI: 6.87 µM
